From PubChem BioAssay (NCI)
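Values below derive from 48-hour exposures of cells grown in 96-well plates, with endpoints linearly interpolated between the two concentrations bracketing the appropriate inhibition level. The concentration for 50% growth inhibition is given as GI50. TGI denotes the concentration required for complete inhibition of growth.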

Key:
Assay in all cases: DTP human tumour cell line panel, 48 h
[1] = test system: EKVX NSCLC
[2] = test system: HCT-116 colon
[3] = test system: SK-MEL-2 melanoma
[4] = test system: IGROV1 ovarian
[5] = test system: RPMI-8226 leukemia
[6] = test system: SF-295 CNS
[7] = test system: NCI-H522 lung
[8] = test system: SNB-75 CNS
[9] = test system: OVCAR-8 ovarian
[10] = test system: CCRF-CEM leukemia

SMILES	GI50 [1]	TGI [1]	GI50 [2]	TGI [2]	GI50 [3]	TGI [3]	GI50 [4]	TGI [4]	GI50 [5]	TGI [5]	GI50 [6]	TGI [6]	GI50 [7]	TGI [7]	GI50 [8]	TGI [8]	GI50 [9]	TGI [9]	GI50 [10]	TGI [10]
CC1(C)N=C(N)N=C(N)N1c1cccc(CCCCc2ccc(Cl)c(S(=O)(=O)F)c2)c1	11.4 µM	39.8 µM	0.457 µM	13.5 µM	8.53 µM	25.4 µM	0.66 µM	18.8 µM	4.97 µM	25.1 µM	2.56 µM	13.4 µM	1.26 µM	18.8 µM	10.3 µM	22.4 µM	9.28 µM	> 100 µM	0.764 µM	17.6 µM
Clc1ccc(-c2nnc(-c3nn(-c4ccccc4)c4nc5ccccc5nc34)o2)cc1		> 100 µM		> 100 µM		> 100 µM		> 100 µM		> 100 µM		> 100 µM		> 100 µM		> 100 µM		> 100 µM		80.8 µM
COc1ccc(/C=C/c2cc(OC)c(OC)c(OC)c2)cc1OC		> 100 µM		> 100 µM		> 100 µM		> 100 µM		> 100 µM		> 100 µM		> 100 µM		> 100 µM		> 100 µM		> 100 µM
CCCC(=O)Oc1ccc(/C=N/NC(N)=S)nc1		> 100 µM		> 100 µM		> 100 µM		> 100 µM		> 100 µM		> 100 µM		> 100 µM		> 100 µM		> 100 µM		> 100 µM
COc1ccc(Cc2ccc3[nH]c(=O)cc(C)c3c2)cc1S(=O)(=O)O		> 100 µM		> 100 µM		> 100 µM		> 100 µM		> 100 µM		> 100 µM		> 100 µM		> 100 µM		> 100 µM		> 100 µM
O=[N+]([O-])c1cc(I)cc(/C=N/NS(=O)(=O)c2ccc(F)cc2)c1O		92.9 µM		43.3 µM		35.7 µM		95.7 µM		54.8 µM		98.2 µM		40.9 µM		66.3 µM		55.3 µM		53.9 µM
O=C(O)C(Cc1ccccc1)N=Cc1nc(-c2ccccc2)oc1O (centres undefined)		> 100 µM		> 100 µM		> 100 µM		> 100 µM		> 100 µM		> 100 µM		> 100 µM		> 100 µM		> 100 µM		> 100 µM
CC(=O)OC1CC2C(C)(C)C(=O)C=C[C@]2(C)C2CCC3(C)C(c4ccoc4)C(=O)C4OC43[C@]12C (some centres undefined)		> 100 µM		26 µM		31.9 µM		47.5 µM		22.5 µM		37.7 µM		26.9 µM		75.3 µM		64.4 µM		58.3 µM
OCC1CC2C=CCC(C2)C1 (centres undefined)		> 100 µM		> 100 µM		> 100 µM		> 100 µM		> 100 µM		> 100 µM		> 100 µM		> 100 µM		> 100 µM		> 100 µM
CC(C)(C)OC(=O)NC(Cc1ccccc1)C(=S)N1CCCC1 (centres undefined)		> 100 µM		> 100 µM		> 100 µM		> 100 µM		98 µM		> 100 µM		96.9 µM		> 100 µM		> 100 µM		> 100 µM
Cn1cnc(SC2=CC(=O)C=C3S[C@H]4C[C@@]23c2c(c(O)c3c5c2=NCCC=5C=N3)N4)c1CC(N)C(=O)O (some centres undefined)	19.3 µM	34.3 µM	2.24 µM	4.88 µM	9.62 µM	24.7 µM	11.6 µM	23.9 µM	16.3 µM	> 100 µM	15.9 µM	29.6 µM	2.42 µM	5.74 µM		34.5 µM	3.81 µM	14.5 µM	3.76 µM	44.1 µM
COc1cc(OCCCN2CCCC2)ccc1Nc1ncc(Cl)c(Nc2ccccc2P(C)(C)=O)n1	0.828 µM	> 20.5 µM	1.74 µM	7.24 µM	2.24 µM	6.21 µM	1.41 µM	22.5 µM	2.68 µM	12.2 µM	2.7 µM	14.2 µM	0.811 µM	3.95 µM	2.55 µM	11.8 µM	3.65 µM	38.8 µM	2.09 µM	15.8 µM
